Assay [1] deals with T1, Tyrosine-protein phosphatase non-receptor type 1 (Homo sapiens, UniProt P18031).
T1 sequence (P18031 whole entry): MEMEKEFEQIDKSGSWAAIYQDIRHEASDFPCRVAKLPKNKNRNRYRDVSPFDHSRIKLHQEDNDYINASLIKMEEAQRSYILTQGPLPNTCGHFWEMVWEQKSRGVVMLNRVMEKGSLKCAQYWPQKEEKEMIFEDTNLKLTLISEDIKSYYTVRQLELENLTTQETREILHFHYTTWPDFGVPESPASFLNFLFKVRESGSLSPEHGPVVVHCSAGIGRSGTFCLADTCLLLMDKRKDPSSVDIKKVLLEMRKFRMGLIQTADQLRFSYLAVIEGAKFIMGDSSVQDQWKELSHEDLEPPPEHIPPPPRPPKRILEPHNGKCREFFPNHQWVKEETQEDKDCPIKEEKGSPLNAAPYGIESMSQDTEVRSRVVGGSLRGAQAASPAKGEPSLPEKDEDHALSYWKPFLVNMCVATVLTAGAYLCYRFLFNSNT
The experiment in a line: Inhibition of human PTP1B.

A further assay has as its system Staphylococcus aureus. The experiment in a line: Antibacterial activity against Staphylococcus aureus Newman […]. Type of assay: functional, organism-based.
Assay [2] has as its target Amyloid-beta precursor protein (Homo sapiens) (UniProt P05067). The experiment in a line: Neuroprotectivie activity against amyloid beta (25 to 35)-induced toxicity in human SH-SY5Y cells assessed as increase in cell viability at 10 uM incubated for 2 hrs prior to amyloid beta (25 to 35)-challenge measured after 24 hrs by MTT assay relative to control. Type of assay: functional, cell-based.

Assay [3] can be described thus: Neuroprotectivie activity against serum deprivation-induced toxicity in human SH-SY5Y cells assessed as increase in cell viability at 10 uM relative to control. Type of assay: functional.

We go through 8 molecules from ChEMBL document CHEMBL2321710, “Bioactive polyhydroxylated steroids from the Hainan soft coral Sinularia depressa Tixier-Durivault” (Bioorg Med Chem Lett, 2013).

In brackets after ≈: the same amount, converted by molar mass.

Amyloid-beta precursor protein (Homo sapiens), sequence (P05067 whole entry): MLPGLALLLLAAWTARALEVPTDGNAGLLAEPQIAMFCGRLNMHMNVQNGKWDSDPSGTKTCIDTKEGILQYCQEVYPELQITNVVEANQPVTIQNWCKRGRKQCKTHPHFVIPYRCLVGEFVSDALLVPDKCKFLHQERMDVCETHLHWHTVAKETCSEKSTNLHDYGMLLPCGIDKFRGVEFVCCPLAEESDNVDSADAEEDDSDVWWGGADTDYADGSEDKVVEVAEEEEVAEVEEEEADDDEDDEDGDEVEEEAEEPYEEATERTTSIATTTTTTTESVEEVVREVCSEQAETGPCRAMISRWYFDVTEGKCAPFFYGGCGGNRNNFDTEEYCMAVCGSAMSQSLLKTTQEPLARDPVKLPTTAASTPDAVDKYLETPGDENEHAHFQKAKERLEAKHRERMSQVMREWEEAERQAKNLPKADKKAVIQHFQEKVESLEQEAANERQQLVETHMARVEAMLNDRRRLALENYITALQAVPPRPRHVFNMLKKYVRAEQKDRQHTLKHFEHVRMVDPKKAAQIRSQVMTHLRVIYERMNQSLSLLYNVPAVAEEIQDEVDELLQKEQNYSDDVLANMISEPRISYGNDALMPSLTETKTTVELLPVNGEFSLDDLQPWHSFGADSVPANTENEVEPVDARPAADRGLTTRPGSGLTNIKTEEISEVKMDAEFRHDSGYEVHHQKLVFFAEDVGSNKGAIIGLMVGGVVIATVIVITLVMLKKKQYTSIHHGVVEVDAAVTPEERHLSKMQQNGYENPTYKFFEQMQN

Take `C=C(CC[C@@H](C)[C@H]1CC[C@@H]2[C@]1(C)CC[C@@H]1[C@@]3(C)CC[C@H](OC(C)=O)[C@@H](C)[C@@H]3CC[C@@]21O)C(C)C`: 22.7 µM corresponded to half-maximal inhibition in assay [1] (IC50).

In the assay on Staphylococcus aureus, `C[C@@H]1O[C@@H]1P(=O)(O)O` [FOSFOMYCIN SODIUM] registered an IC50 of 137 µM.

The molecule `C=C(CC[C@@H](C)[C@H]1CC[C@H]2[C@@H]3CCC4=CC(=O)CC[C@]4(C)[C@H]3CC[C@]12C)C(C)C` returned a concentration for half-maximal inhibition (IC50) in assay [1] of 15.3 µM. Moreover, the figures for the Activity in assay [2] and in assay [3] were 16.6% and 16.9%, respectively.

For the molecule `C=C(CC[C@@H](C)[C@H]1CC[C@H]2[C@@H]3[C@@H](OC(C)=O)C=C4C[C@@H](O)CC[C@]4(CO)[C@H]3CC[C@]12C)C(C)C`, the MIC50 against Staphylococcus aureus stood at 1000 µM (≈ 473 µg/mL). That is a millimolar value.

In assay [1], `C=C(CC[C@@H](C)[C@H]1CC[C@H]2[C@@H]3CC[C@H]4[C@H](C)[C@@H](O)CC[C@]4(C)[C@H]3CC[C@]12C)C(C)C` showed an IC50 of 19.5 µM.

`C=C(CC[C@@H](C)[C@H]1CC[C@H]2[C@@H]3C[C@@H](O)[C@@]4(O)C[C@@H](O)CC[C@]4(COC(C)=O)[C@H]3CC[C@]12C)C(C)C` [ARMATINOL B] had an MIC50 against Staphylococcus aureus of 15.6 µM (≈ 7.66 µg/mL). In other words, the double-digit micromolar range.

Take `C=C(CC[C@@H](C)[C@H]1CC[C@@H]2[C@]1(C)C[C@H](O)[C@@H]1[C@@]3(C)CC[C@H](O)[C@@H](C)[C@@H]3CC[C@@]21O)C(C)C`: the Activity in assay [2] is 20.1%.

Regarding `C=C(CC[C@@H](C)[C@H]1CC[C@@H]2[C@]1(C)CC[C@H]1[C@]23CC[C@]2(C[C@@H](O)CC[C@]12C)OO3)C(C)C`, the MIC50 against Staphylococcus aureus is 500 µM (≈ 215 µg/mL).

By IC50 is commonly meant the concentration at which inhibition is half-maximal. A higher IC50 goes with a need for much substance. One may read the MIC50 as an inhibitory concentration at the 50% level, which refers to growth in some studies and to a panel of isolates in others.
